Assays:
[1] = system: cardiac arrhythmias (coronary artery occlusion); test: Coronary artery ligation induced arrhythmias (conscious dogs); format: in vivo, dog (adult mongrel); conditions: for Antiarrhythmic Activity: Number of dogs in which drug is considered active/number treated: active = normal sinus rhythm within 2 hours
Method: Cardiac arrhythmias in dogs are induced by surgically restricting blood flow in a coronary artery. The test compound is administered intravenously and the heart rate and number and percentage of ectopic beats recorded at 15 minute intervals.
Adult mongrel dogs which are in the conscious state were used for the test and cardiac arrhythmias were induced by prior (22-24 hr) surgical preparation in which blood flow through a coronary artery was occluded by use of a constrictor device as reported by Smith et al, 1973. A Grass Model 79 Polygraph was used for recording the electrocardiogram (Grass 7P4 Preamplifier).
The test compound was administered by infusion (Harvard Model 942 Infusion Pump) into a saphenous vein to the test group of dogs at a rate of 0.5 mg/kg/min. Concentration of compound was adjusted according to the weight of the dog to allow a volume of infusion of 0.5 ml/min. Following the administration of the test compound, the heart rate, number of ectopic beats (ectopic beats/HR×1000) were recorded at 15 min intervals. The compound was considered active if it abolished the ectopic ventricular frequency and caused a return to normal sinus rhythm within 2 hours of administration. Cardiac arrhythmias produced by modification of method of Harris, 1950, Circulation 1, 1318, as reported by Smith et al, 1973, Pharmacologist 15, 192.

[2] = system: morphine-induced Straub Tail; test: Morphine-induced Straub Tail in Mice Test (muscle relaxant); format: in vivo; conditions: scored 30 min after test compound; for ED50: Mus musculus, 0.5 h, IP, morphine sulfate 60 mg/kg s.c. 15 min later, read-out: Straub Tail Inhibition ED50
Method: Administration of morphine sulfate to a mouse causes the tail to become elevated perpendicular to the body. […] The test procedure relied on to indicate positive muscle relaxant activity is the morphine-induced Straub Tail in Mice Test described by G. D. Novak in DRUG DEVELOPMENT RESEARCH (1982) 2: 383-386, except 8 animals per group were used per test rather than 10. The test is summarized as follows: The test drug, reference drug, and control articles to be administered are prepared in saline, 0.5% aqueous methylcellulose suspension or other, depending on solubility, in such concentration that the volume administered is 10 ml/kg. The initial screening dose of the test drug is usually 100 mg/kg. Groups of 8 mice are given an IP dose of a compound or vehicle prepared as described above. After 15 min, mice are administered morphine sulfate, 60 mg/kg in saline, subcutaneously. Fifteen minutes after administration of morphine (i.e., 30 min after test compound administration), mice were scored for presence of Straub Tail defined as an elevation of the tail at least 90 degrees from the horizontal. An ED50 value may be determined from at least three logarithmically spaced doses by the method of Litchfield and Wilcoxon (1949), J. PHARMACOL. EXP. THER. 96: 99-113.

CN1CCC(Nc2nc3ccccc3n2Cc2ccccc2)C1 (stereo not shown) [Compound 3, N-(1-Methyl-3-pyrrolidinyl)-1-(phenylmethyl)-1H-benzimidazol-2-amine]
Antiarrhythmic Activity: Number of dogs in which drug is considered active/number treated ([1]; dose 7 mg/kg IV): 7/8
ED50 [2]: 21 mg/kg

CCN1CCC(Nc2nc3ccccc3n2CC)C1 (stereo not shown) [Compound 1, 1-Ethyl-N-(1-ethyl-3-pyrrolidinyl)-1H-benzimidazol-2-amine]
Antiarrhythmic Activity: Number of dogs in which drug is considered active/number treated ([1]; dose 5 mg/kg IV): 1/2
ED50 [2]: 36 mg/kg

CN1CCC(Nc2nc3ccccc3n2Cc2ccccc2)CC1 [Compound 4, N-(1-Methyl-4-piperidinyl)-1-(phenylmethyl)-1H-benzimidazol-2-amine]
Antiarrhythmic Activity: Number of dogs in which drug is considered active/number treated ([1]; dose 9 mg/kg IV): 2/6
Straub Tail Inhibition % ([2]; dose 100 mg/kg IP): -25%

CCn1c(NC2CCN(C)C2)nc2ccccc21 (stereo not shown) [Compound 2, 1-Ethyl-N-(1-methyl-3-pyrrolidinyl)-1H-benzimidazol-2-amine]
Antiarrhythmic Activity ([1]; dose 7 mg/kg IV): partially active (Reduces ectopic beats from 50-99%)
